Test system: NCI-H929 complex spheroids, viability % test/control
Assay: Anticancer human tumor NCI-H929 cell line growth inhibition [RAS];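 also: compound exposure lasted seven days before viability was read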;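 as to viability, T/C: 100% = DMSO vehicle control viability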
Conditions: for IC50: curve of first compound; for viability, T/C: stronger effect = lower value
Outline: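 Multi-cell-type spheroids: tumor cells plus HUVEC endothelial cells and mesenchymal stem cells. RAS-pathway inhibitors were combined with targeted agents, each dosed in half-log steps down from clinical Cmax, or from 10 microM when Cmax was unknown.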

[1] = second compound 0.000949 µM, first compound 0.0316 µM
[2] = second compound 0.000949 µM, first compound 0.1 µM
[3] = second compound 0.000949 µM, first compound 0.316 µM
[4] = second compound 0.000949 µM, first compound 1 µM
[5] = second compound 0.003 µM, first compound 0.0316 µM
[6] = second compound 0.003 µM, first compound 0.1 µM
[7] = second compound 0.003 µM, first compound 0.316 µM
[8] = second compound 0.003 µM, first compound 1 µM
[9] = second compound 0.00949 µM, first compound 0.0316 µM
[10] = second compound 0.00949 µM, first compound 0.1 µM
[11] = second compound 0.00949 µM, first compound 0.316 µM
[12] = second compound 0.00949 µM, first compound 1 µM
[13] = second compound 0.03 µM, first compound 0.0316 µM
[14] = second compound 0.03 µM, first compound 0.1 µM
[15] = second compound 0.03 µM, first compound 0.316 µM
[16] = second compound 0.03 µM, first compound 1 µM
[17] = second compound 0.0949 µM, first compound 0.0316 µM
[18] = second compound 0.0949 µM, first compound 0.1 µM
[19] = second compound 0.0949 µM, first compound 0.316 µM
[20] = second compound 0.0949 µM, first compound 1 µM
[21] = second compound 0.3 µM, first compound 0.0316 µM
[22] = second compound 0.3 µM, first compound 0.1 µM
[23] = second compound 0.3 µM, first compound 0.316 µM
[24] = second compound 0.3 µM, first compound 1 µM

Compound CC(=O)OC12COC1CC(O)C1(C)C(=O)C(O)C3=C(C)C(OC(=O)C(O)C(NC(=O)OC(C)(C)C)c4ccccc4)CC(O)(C(OC(=O)c4ccccc4)C21)C3(C)C (centres undefined) + CCn1c(-c2cc(N3CCN(C)CC3)cnc2C(C)OC)c2c3cc(ccc31)-c1csc(n1)CC(NC(=O)C1CC1C)C(=O)N1CCCC(N1)C(=O)OCC(C)(C)C2 has an IC50 (second compound 0.000949 µM) of less than 31.6 nM, an IC50 (second compound 0.003 µM) of less than 31.6 nM and an IC50 (second compound 0.00949 µM) of less than 31.6 nM. The IC50 (second compound 0.03 µM) was less than 31.6 nM, the IC50 (second compound 0.0949 µM) was less than 31.6 nM and the IC50 (second compound 0.3 µM) was less than 31.6 nM. It also gave a viability, T/C [1] of 0.9%, a viability, T/C [2] of 0.92% and a viability, T/C [3] of 1.34%. The viability, T/C [4] was 1.14%, the viability, T/C (second compound 0.000949 µM, first compound 3.16 µM) was 1.74% and the viability, T/C (second compound 0.000949 µM, first compound 10 µM) was 1.22%. For the same compound, the viability, T/C [5] was 1.12%, the viability, T/C [6] was 1.88% and the viability, T/C [7] was 1.04%. The viability, T/C [8] was 0.64%, the viability, T/C (second compound 0.003 µM, first compound 3.16 µM) was 1.46% and the viability, T/C (second compound 0.003 µM, first compound 10 µM) was 0.97%. The viability, T/C [9] was 1.36%, the viability, T/C [10] was 1.42% and the viability, T/C [11] was 1.07%. For the same compound, the viability, T/C [12] was 1.07%, the viability, T/C (second compound 0.00949 µM, first compound 3.16 µM) was 0.91% and the viability, T/C (second compound 0.00949 µM, first compound 10 µM) was 1.16%. The viability, T/C [13] was 1.81%, the viability, T/C [14] was 0.83% and the viability, T/C [15] was 0.75%. It also gave a viability, T/C [16] of 1.71%, a viability, T/C (second compound 0.03 µM, first compound 3.16 µM) of 0.99% and a viability, T/C (second compound 0.03 µM, first compound 10 µM) of 1.17%. The viability, T/C [17] was 1.09%, the viability, T/C [18] was 0.75% and the viability, T/C [19] was 0.6%. The viability, T/C [20] was 0.56%, the viability, T/C (second compound 0.0949 µM, first compound 3.16 µM) was 1.05% and the viability, T/C (second compound 0.0949 µM, first compound 10 µM) was 0.51%. The viability, T/C [21] was 0.99%, the viability, T/C [22] was 0.51% and the viability, T/C [23] was 0.87%. It also gave a viability, T/C [24] of 0.72%, a viability, T/C (second compound 0.3 µM, first compound 3.16 µM) of 0.64% and a viability, T/C (second compound 0.3 µM, first compound 10 µM) of 0.46%.

Compound Nc1ccn(C2OC(CO)C(O)C2(F)F)c(=O)n1 (centres undefined) + CCn1c(-c2cc(N3CCN(C)CC3)cnc2C(C)OC)c2c3cc(ccc31)-c1csc(n1)CC(NC(=O)C1CC1C)C(=O)N1CCCC(N1)C(=O)OCC(C)(C)C2 has an IC50 (second compound 0.000949 µM) of 7.3 nM, an IC50 (second compound 0.003 µM) of 6.69 nM and an IC50 (second compound 0.00949 µM) of 6.61 nM. It also gave an IC50 (second compound 0.03 µM) of less than 3.16 nM, an IC50 (second compound 0.0949 µM) of less than 3.16 nM and an IC50 (second compound 0.3 µM) of less than 3.16 nM. For the same compound, the viability, T/C (second compound 0.000949 µM, first compound 0.00316 µM) was 110%, the viability, T/C (second compound 0.000949 µM, first compound 0.01 µM) was 27.6% and the viability, T/C [1] was 2.05%. For the same compound, the viability, T/C [2] was 2.16%, the viability, T/C [3] was 1.6% and the viability, T/C [4] was 1.6%. For the same compound, the viability, T/C (second compound 0.003 µM, first compound 0.00316 µM) was 105%, the viability, T/C (second compound 0.003 µM, first compound 0.01 µM) was 20.4% and the viability, T/C [5] was 2.07%. It also gave a viability, T/C [6] of 1.75%, a viability, T/C [7] of 1.35% and a viability, T/C [8] of 1.62%. It also gave a viability, T/C (second compound 0.00949 µM, first compound 0.00316 µM) of 127%, a viability, T/C (second compound 0.00949 µM, first compound 0.01 µM) of 6.62% and a viability, T/C [9] of 1.99%. For the same compound, the viability, T/C [10] was 2.73%, the viability, T/C [11] was 1.58% and the viability, T/C [12] was 1.35%. The viability, T/C (second compound 0.03 µM, first compound 0.00316 µM) was 15.2%, the viability, T/C (second compound 0.03 µM, first compound 0.01 µM) was 3.12% and the viability, T/C [13] was 1.8%. For the same compound, the viability, T/C [14] was 1.5%, the viability, T/C [15] was 1.42% and the viability, T/C [16] was 1.24%. It also gave a viability, T/C (second compound 0.0949 µM, first compound 0.00316 µM) of 2.68%, a viability, T/C (second compound 0.0949 µM, first compound 0.01 µM) of 1.67% and a viability, T/C [17] of 1.66%. For the same compound, the viability, T/C [18] was 1.4%, the viability, T/C [19] was 1.18% and the viability, T/C [20] was 1.05%. It also gave a viability, T/C (second compound 0.3 µM, first compound 0.00316 µM) of 1.41%, a viability, T/C (second compound 0.3 µM, first compound 0.01 µM) of 1.1% and a viability, T/C [21] of 1.1%. The viability, T/C [22] was 1.32%, the viability, T/C [23] was 1.02% and the viability, T/C [24] was 0.86%.

Reference: PubChem BioAssay AID2060884 (Molecular Pharmacology Branch, DTP, NCI, 2025)
